# Laboratory results as given in patent publication US20250161216A1, “CATIONIC LIPID ANALOGUES, COMPOSITIONS AND USES THEREOF” (GUANGZHOU LIDE BIOMEDICINE TECHNOLOGY CO., LTD., priority 2022, published 2025).
# Legend:
# [1] = Characterization of the lipid nanoparticles prepared in Example 6; assay type: physicochemical; conditions: cationic lipid analogue:cholesterol:DSPC:DMG-PEG 50:38.5:10:1.5
# Text: The drug-loaded nanoparticle included a cationic lipid analogue, cholesterol, distearoylphosphatidylcholine (DSPC), and 1,2-dimyristoyl-rac-glycerol-3-methoxypolyethylene glycol (DMG-PEG), • wherein a molar ratio of the cationic lipid analogue:cholesterol:DSPC:DMG-PEG was 50:38.5:10:1.5.
# In the drug-loaded nanoparticle, a mass ratio of the cationic lipid analogue to the nucleic acid drug, such as mRNA or siRNA, etc., was 11:1.
# A cationic lipid analogue, cholesterol, DSPC, and DMG-PEG were dissolved in an ethanol solution, and mixed in the above-mentioned molar ratio to obtain an organic phase. Then, an mRNA nucleic acid drug at a corresponding mass ratio was dissolved in a sodium acetate buffer solution (25 mM, pH=3.0) to obtain an aqueous phase, so that a volume ratio of the aqueous phase to the organic phase was 3:1. Then, the aqueous phase was quickly added to the organic phase and mixed evenly, and the mixture was allowed to stand for 10 minutes. After that, the mixture was put into a 1000 Da dialysis bag, and dialyzed in a 1×PBS solution at 4° C. for 2 hours to obtain the nanoparticle that can be directly used for injection.
# C57BL/6 mice [2] = assay: In vivo expression level of Luciferase-mRNA delivered by intravenous injection (bioluminescence imaging); conditions: mRNA-loaded nanoparticles, intravenous (tail vein), 5 μg Luciferase-mRNA, 6 hours; for Bioluminescence intensity / Fluorescence intensity of liver: compounds of Example 1
# In short: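 Lipid nanoparticles carrying 5 μg Luciferase-mRNA given by tail-vein injection to 6-8-week-old C57BL/6 mice. At 6 h, 3 mg D-luciferin i.p. in PBS; bioluminescence imaged 10 min later as the expression read-out.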
# C57BL/6 mice [3] = assay: In vivo expression level of Luciferase-mRNA delivered by intramuscular injection (bioluminescence imaging); conditions: mRNA-loaded nanoparticles, intramuscular (leg muscle), 5 μg Luciferase-mRNA, 6 hours
# Experimental: Luciferase-mRNA was used as an mRNA model; and the cationic lipid analogues of Examples 1-5 were used to prepare drug-loaded nanoparticles according to the method of Example 6.
# (§1) 100 μL of nanoparticles containing 5 μg Luciferase-mRNA or the drug-loaded nanoparticles prepared above were injected into the leg muscles of 6-8 week-old C57BL/6 mice, and 200 μL of 1×PBS solution containing 3 mg D-Luciferin potassium salt was intraperitoneally injected into the mice 6 hours later. After waiting for 10 minutes, an in vivo expression level of the mRNA was evaluated by bioluminescence imaging.
# C57BL/6 mice [4] = assay: In vivo expression level of Luciferase-mRNA delivered by intraperitoneal injection (bioluminescence imaging); conditions: mRNA-loaded nanoparticles, 5 μg Luciferase-mRNA, 6 hours
# Experimental: (§2) Luciferase-mRNA was used as an mRNA model; and the cationic lipid analogue A1I4R22C18-2 of Example 2 was used to prepare drug-loaded nanoparticles according to the method of Example 6.
# as §1, with “200 μL” for “100 μL”, “were intraperitoneally” for “were”, “into” for “into the leg muscles of”, “vivo mRNA” for “vivo”, “the m-RNA” for “the mRNA”
# C57BL/6 mice [5] = assay: In vivo expression level of Luciferase-mRNA delivered by tracheal injection (bioluminescence imaging); conditions: mRNA-loaded nanoparticles, 5 μg Luciferase-mRNA, 6 hours
# Experimental: as §2
# as §1, with “were tracheally” for “were”, “into” for “into the leg muscles of”, “min,” for “minutes,”, “vivo mRNA” for “vivo”, “level” for “level of the mRNA”
SMILES,Fluorescence intensity of spleen (C57BL/6 mice [2]; compounds of Example 2),Local fluorescence intensity (C57BL/6 mice [3]; compounds of Example 2),Local fluorescence intensity (C57BL/6 mice [3]; compounds of Example 1),Fluorescence intensity of liver (C57BL/6 mice [2]),also measured
CCCCC/C=C\C/C=C\CCCCCCCC(=O)N(CCO)C(C(=O)NCCN(C)CCNC(=O)C(C(C)C)N(CCO)C(=O)CCCCCCC/C=C\C/C=C\CCCCC)C(C)C (stereo not drawn) [A1I4R22C18-2],1.47E+06,2.69E+05,,,Diameter of the nanoparticles [1]: 133 ± 6 nm; PDI [1]: 0.17; Zeta potential [1]: −5.5 mV; encapsulation efficiency [1]: 62.1%; Fluorescence intensity of spleen (C57BL/6 mice [4]): 6.48E+06; Fluorescence intensity of spleen (C57BL/6 mice [5]): 2.54E+05
CCCCCCCCCCSSCCC(=O)N(CCO)C(C(=O)NCCN(CCNC(=O)C(C(C)C)N(CCO)C(=O)CCSSCCCCCCCCCC)CCNC(=O)C(C(C)C)N(CCO)C(=O)CCSSCCCCCCCCCC)C(C)C (stereo not drawn) [A1I5R22S15],,,,,Diameter of the nanoparticles [1]: 144 ± 7 nm; PDI [1]: 0.22; Zeta potential [1]: −7.2 mV; encapsulation efficiency [1]: 65.4%; Fluorescence intensity of spleen (C57BL/6 mice [2]; compounds of Example 3): 3.40E+06; Local fluorescence intensity (C57BL/6 mice [3]; compounds of Example 3): 1.50E+06
CCCCC/C=C\C/C=C\CCCCCCCC(=O)N(CCN(CCN(C(=O)CCCCCCC/C=C\C/C=C\CCCCC)C(C(=O)NCC(=O)OCC)C(C)C)CCN(C(=O)CCCCCCC/C=C\C/C=C\CCCCC)C(C(=O)NCC(=O)OCC)C(C)C)C(C(=O)NCC(=O)OCC)C(C)C (stereo not drawn) [A1I32R47C18-2],,,,,Diameter of the nanoparticles [1]: 150 ± 9 nm; PDI [1]: 0.21; Zeta potential [1]: −3.1 mV; encapsulation efficiency [1]: 60.5%; Fluorescence intensity of spleen (C57BL/6 mice [2]; compounds of Example 5): 8.50E+03; Local fluorescence intensity (C57BL/6 mice [3]; compounds of Example 5): 3.68E+04
CCCCCCCC/C=C\CCCCCCCC(=O)N(CCCN(CC)CC)C(C(=O)NCCCCCCCCCCCCCCCCCC)C(CC)CCCC (stereo not drawn) [A4I18R3C18-1],,,1.77E+07,,Bioluminescence intensity (C57BL/6 mice [2]): 1.39E+07
CCCCC/C=C\C/C=C\CCCCCCCC(=O)N(CCCN(CC)CC)C(C(=O)NCCCCCCCCCCCCCCCCCC)C(CC)CCCC (stereo not drawn) [A4I18R3C18-2],,,3.08E+07,,Diameter of the nanoparticles [1]: 83 ± 9 nm; PDI [1]: 0.12; Zeta potential [1]: −3.2 mV; encapsulation efficiency [1]: 75.3%; Bioluminescence intensity (C57BL/6 mice [2]): 2.29E+07
CCCCC/C=C\C/C=C\CCCCCCCC(=O)N(CCCN1CCOCC1)C(C(=O)NCCCCCCCCCCCCCCCCCC)C(CC)CCCC (stereo not drawn) [A4I18R5C18-2],,,4.99E+05,8.34E+03,
CCCCCCCCCCCCCCCCCCNC(=O)C(C(CC)CCCC)N(CCCN1CCOCC1)C(=O)CCCCCCCCCCCCCCCCC (stereo not drawn) [A4I18R5C18],,,4.33E+05,2.68E+03,
CCCCC/C=C\C/C=C\CCCCCCCC(=O)N(CCN1CCCCC1)C(C(=O)NCCCCCCCCCCCCCCCCCC)C(CC)CCCC (stereo not drawn) [A4I18R12C18-2],,,2.60E+05,9.22E+03,
CCCCCCCCCCCCCCCCCCNC(=O)C(C(CC)CCCC)N(CCN1CCCCC1)C(=O)CCCCCCCCCCCCCCCCC (stereo not drawn) [A4I18R12C18],,,1.75E+05,2.31E+03,
CCCCCCCC/C=C\CCCCCCCC(=O)N(CCO)C(C(=O)NCCN(C)CCNC(=O)C(C1CCCCC1)N(CCO)C(=O)CCCCCCC/C=C\CCCCCCCC)C1CCCCC1 (stereo not drawn) [A23I4R22C18-1],6.57E+05,1.41E+05,,,
CCCCC/C=C\C/C=C\CCCCCCCC(=O)N(CCO)C(C(=O)NCCN(C)CCNC(=O)C(C1CCCCC1)N(CCO)C(=O)CCCCCCC/C=C\C/C=C\CCCCC)C1CCCCC1 (stereo not drawn) [A23I4R22C18-2],6.10E+05,9.09E+05,,,
CCCCCCCCCCCCCCCCCC(=O)N(CCO)C(C(=O)NCCN(C)CCNC(=O)C(C1CCCCC1)N(CCO)C(=O)CCCCCCCCCCCCCCCCC)C1CCCCC1 (stereo not drawn) [A23I4R22C18],4.61E+05,3.41E+04,,,
CCCCCCCC/C=C\CCCCCCCC(=O)N(CCOC)C(C(=O)NCCN(C)CCNC(=O)C(C1CCCCC1)N(CCOC)C(=O)CCCCCCC/C=C\CCCCCCCC)C1CCCCC1 (stereo not drawn) [A23I4R23C18-1],2.96E+05,5.87E+06,,,
CCCCCCCCCCCCCCCCCC(=O)N(CCOC)C(C(=O)NCCN(C)CCNC(=O)C(C1CCCCC1)N(CCOC)C(=O)CCCCCCCCCCCCCCCCC)C1CCCCC1 (stereo not drawn) [A23I4R23C18],1.49E+05,5.32E+05,,,
CCCCC/C=C\C/C=C\CCCCCCCC(=O)N(CCCN(C)C)C(C(=O)NCCCCCCCCCCCCCCCCCC)C1CCCCC1 (stereo not drawn) [A23I18R2C18-2],,,7.16E+05,1.52E+06,
CCCCCCCCCCCCCCCCCCNC(=O)C(C1CCCCC1)N(CCCN(C)C)C(=O)CCCCCCCCCCCCCCCCC (stereo not drawn) [A23I18R2C18],,,4.83E+04,3.87E+05,
CCCCCCCCCCCCCCCCCCNC(=O)C(C1CCCCC1)N(CCCN1CCOCC1)C(=O)CCCCCCCCCCCCCCCCC (stereo not drawn) [A23I18R5C18],,,9.13E+04,1.85E+03,
CCCCC/C=C\C/C=C\CCCCCCCC(=O)N(CCN1CCCCC1)C(C(=O)NCCCCCCCCCCCCCCCCCC)C1CCCCC1 (stereo not drawn) [A23I18R12C18-2],,,2.01E+06,6.30E+03,
